Patent US7238813B2, “Chemical compounds” (Smithkline Beecham Corporation, priority 2000, dated 2007)
Counter-ions that a name gives are not always drawn.

Key:
[1] = molecular target: T1, TIE2 intracellular domain/c-fms extracellular domain (TIE2/c-fms) chimeric protein expressing mouse 3T3 cells (Homo sapiens, UniProt Q02763); assay: TIE-2 autophosphorylation assay (TIE2-C), ELISA; type: cell-based; conditions: TIE2/c-fms 3T3 cells, MCSF activation
T1 construct: a TIE2 intracellular domain/c-fms extracellular domain (TIE2/c-fms) chimeric protein; expressed in transfected cells; host or cells: mouse 3T3 cells
T1 sequence (Q02763 770-1124 limits assumed, change not shown): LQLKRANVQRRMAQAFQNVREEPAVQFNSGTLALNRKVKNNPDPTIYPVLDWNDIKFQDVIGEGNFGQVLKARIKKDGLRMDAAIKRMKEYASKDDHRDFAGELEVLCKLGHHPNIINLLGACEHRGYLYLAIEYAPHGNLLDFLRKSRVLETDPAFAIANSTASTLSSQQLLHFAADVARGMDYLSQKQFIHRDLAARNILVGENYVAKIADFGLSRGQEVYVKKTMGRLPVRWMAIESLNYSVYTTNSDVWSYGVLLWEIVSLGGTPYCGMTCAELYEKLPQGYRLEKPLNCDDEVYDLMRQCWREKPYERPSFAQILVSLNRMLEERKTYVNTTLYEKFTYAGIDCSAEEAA
Method in brief: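 Mouse 3T3 cells expressing TIE2 intracellular/c-fms extracellular chimera treated with compound for 1 hr in serum-free DMEM (0.1% DMSO), then stimulated with MCSF. Lysates captured on anti-c-fms plates overnight at 4 °C; phosphotyrosine detected by biotin-PT66/HRP-streptavidin, OD450. IC50 by nonlinear regression, reported as pIC50.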

[2] = molecular target: T2, GST-TIE2 (intracellular domains of human TIE2) (Homo sapiens, UniProt Q02763); assay: TIE-2 enzyme assay (TIE2-E), LANCE method; type: biochemical; conditions: 80 uM ATP
T2 construct: made in house
T2 sequence (Q02763 762-1104): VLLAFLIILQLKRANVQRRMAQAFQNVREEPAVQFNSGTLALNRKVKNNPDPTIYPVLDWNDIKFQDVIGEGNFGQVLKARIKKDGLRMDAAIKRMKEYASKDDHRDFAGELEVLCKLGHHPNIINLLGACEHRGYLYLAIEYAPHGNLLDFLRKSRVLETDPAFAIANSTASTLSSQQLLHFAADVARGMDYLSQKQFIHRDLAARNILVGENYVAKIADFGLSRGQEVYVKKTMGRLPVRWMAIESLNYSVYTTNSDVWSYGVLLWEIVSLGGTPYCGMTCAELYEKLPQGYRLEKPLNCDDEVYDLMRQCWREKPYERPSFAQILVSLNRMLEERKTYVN
Method in brief: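 Baculovirus GST-TIE2 (human intracellular domain, aa 762–1104) preactivated 30 min at RT with 2 mM ATP, then reacted 30 min at RT with 1 μM D1-15 peptide, 80 uM ATP, 10 mM MgCl2, pH 7.4, 2.4% DMSO. EDTA-stopped; LANCE Eu-anti-pTyr/streptavidin-APC read-out. IC50 by nonlinear regression, reported as pIC50.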

[3] = system: Human umbilical cord endothelial cells (HUVEC); assay: VEGF-driven cellular proliferation assay: BrdU incorporation assay (VEGF-C); type: cell-based; set-up: key to VEGF-C: + = pIC50 of 5.0–6.0; ++ = pIC50 of 6.0–7.0; +++ = pIC50 of > 7.0; − = a negative or inconclusive result; conditions: for IC50: Homo sapiens
Method in brief: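 HUVEC (≤6 passages) were plated at 5000 cells/well and exposed to compound 30 min in serum-free M199 containing 0.6% DMSO. Medium with 20 ng/ml VEGF was then added for 24 h, followed by a 24 h pulse with 10 μM BrdU and ELISA read at 450 nm. IC50 from nonlinear regression of percent inhibition was expressed as pIC50.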

GST-VEGFR2 = molecular target: T3, GST-VEGFR2 (Homo sapiens, UniProt P35968); assay: VEGF-R2 enzyme assay (VEGF-E), LANCE method; type: biochemical; conditions: 75 μM ATP
T3 construct: GST-VEGFR2, baculovirus expressed recombinant constructs of the intracellular domains of human TIE2 tagged by GST; made in house
T3 sequence (P35968 786-1356 limits assumed): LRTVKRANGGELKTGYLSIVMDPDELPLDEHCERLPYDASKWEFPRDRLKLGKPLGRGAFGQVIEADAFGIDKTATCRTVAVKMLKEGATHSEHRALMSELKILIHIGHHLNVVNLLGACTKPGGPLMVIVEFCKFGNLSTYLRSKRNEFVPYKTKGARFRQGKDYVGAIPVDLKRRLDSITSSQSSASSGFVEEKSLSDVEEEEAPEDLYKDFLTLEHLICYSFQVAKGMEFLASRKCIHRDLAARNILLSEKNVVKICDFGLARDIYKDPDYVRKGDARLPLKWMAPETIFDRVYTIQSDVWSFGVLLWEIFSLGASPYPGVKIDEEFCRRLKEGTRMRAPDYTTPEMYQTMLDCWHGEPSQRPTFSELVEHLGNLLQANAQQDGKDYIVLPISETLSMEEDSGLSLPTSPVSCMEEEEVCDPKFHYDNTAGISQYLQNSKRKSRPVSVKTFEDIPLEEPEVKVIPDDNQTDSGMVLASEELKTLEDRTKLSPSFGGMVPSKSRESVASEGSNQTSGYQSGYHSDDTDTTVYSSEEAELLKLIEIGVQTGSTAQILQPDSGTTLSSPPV

Row | IC50 [1] [nM] | IC50 [2] [nM] | IC50 (GST-VEGFR2) [nM] | Compound | IC50 [3] [nM] | VEGF-C [3]
1 | < 100 | < 100 | < 100 | COC(=O)Nc1nc2ccc(Oc3ccc(NC(=O)Nc4cc(C(F)(F)F)ccc4Cl)cc3)nc2[nH]1 [Example 72, Methyl N-(5-(4-((2-chloro-5-(trifluoromethyl)phenyl)aminocarbonylamino)phenoxy)-3,4-diaza-1H-indole-2-yl)carbamate dihydrochloride] | 1000 to 10000 | 
2 | < 100 | < 100 | < 100 | Cn1cnc(CC(=O)Nc2nc3cc(Oc4ccc(NC(=O)Nc5cc(C(F)(F)F)ccc5F)cc4)ccc3[nH]2)c1 [Example 97, N-(5-(4-((2-Fluoro-5-(trifluoromethyl)phenyl)aminocarbonylamino)phenoxy)-1H-benzimidazol-2-yl)(1methyl-1H-imidazol-4-yl)acetamide] | < 100 | 
3 | 1000 to 10000 | < 100 | < 100 | Nc1nc2ccc(Oc3ccc(NC(=O)Nc4cc(C(F)(F)F)ccc4F)cc3)cc2[nH]1 [Example 22, 2-Amino-5-(4-((2-fluoro-5-(trifluoromethyl)phenyl)aminocarbonylamino)phenoxy)-1H-benzimidazole.] | 1000 to 10000 | 
4 | < 100 | < 100 | < 100 | COC(=O)Nc1nc2nc(Oc3ccc(NC(=O)Nc4cc(C(F)(F)F)ccc4F)cc3)ccc2[nH]1 [Example 69, dihydrochloride] | 100 to 1000 | 
5 | < 100 | < 100 | < 100 | COC(=O)Nc1nc2ccc(Oc3ccc(NC(=O)Nc4cc(Cl)ccc4Cl)cc3)nc2[nH]1.Cl [Example 74, Methyl N-(5-(4-((2,5-dichlorophenyl)aminocarbonylamino)phenoxy)-3,4-diaza-1H-indole-2-yl)carbamate dihydrochloride] |  | −
6 | < 100 | < 100 | < 100 | CC(=O)NCC(=O)Nc1nc2cc(Oc3ccc(NC(=O)Nc4cc(C(F)(F)F)ccc4F)cc3)ccc2[nH]1 [Example 29, N-(5-(4-((2-Fluoro-5-(trifluoromethyl)phenyl)aminocarbonylamino)phenoxy)-1H-benzimidazol-2-yl)-2-(N-acetylamino)acetamide] | 100 to 1000 | 
7 | < 100 | < 100 | < 100 | COC(=O)Nc1nc2cc(Oc3ccc(NC(=O)Nc4cccc(C(F)(F)F)c4)cn3)ccc2[nH]1 [Example 38] |  | −
8 | < 100 | < 100 | < 100 | CN1CCN(Cc2ccc(C(=O)Nc3nc4cc(Oc5ccc(NC(=O)Nc6cc(C(F)(F)F)ccc6F)cc5)ccc4[nH]3)cc2)CC1 [Example 87, N-(5-(4-((2-Fluoro-5-(trifluoromethyl)phenyl)aminocarbonylamino)phenoxy)-1H-benzimidazol-2-yl)-4-(4-methyl-1-piperazinomethyl)benzamide] | 100 to 1000 | 
9 | 100 to 1000 | 100 to 1000 | < 100 | COC(=O)Nc1nc2cc(Oc3cccc(NC(=O)Nc4cccc(Cl)c4)c3)ccc2[nH]1 [Example 14, Methyl (5-(3-((3-Chlorophenyl)aminocarbonylamino)phenoxy)-1H-benzimidazol-2-yl)carbamate hydrochloride] | 100 to 1000 | 
10 | 100 to 1000 | < 100 | < 100 | COC(=O)Nc1nc2cc(Oc3ccc(NC(=O)Nc4cccc(Cl)c4)cc3)ccc2[nH]1 [Example 1, Methyl N-(5-(4-((3-chlorophenyl)aminocarbonylamino)phenoxy)-1H-benzimidazol-2-yl)carbamate] |  | −
11 | 1000 to 10000 | < 100 | 100 to 1000 | COC(=O)Nc1nc2ccc(Sc3ccc(NC(=O)Nc4cccc(Br)c4)cc3)cc2[nH]1 [Example 4, Methyl N-(5-(4-((3-bromophenyl)aminocarbonylamino)phenylthio)-1H-benzimidazol-2-yl)carbamate] |  | −
12 | < 100 | < 100 | < 100 | O=C(Nc1ccc(Oc2ccc3[nH]c(NC(=O)c4ccc(-n5ccnc5)cc4)nc3c2)cc1)Nc1cc(C(F)(F)F)ccc1F [Example 91, N-(5-(4-((2-Fluoro-5-(trifluoromethyl)phenyl)aminocarbonylamino)phenoxy)-1H-benzimidazol-2-yl)-4-(1H-imidazol-1-yl)benzamide] |  | −
13 | < 100 | < 100 | < 100 | O=C(Nc1ccc(Oc2ccc3[nH]c(NC(=O)c4ccc5[nH]cnc5c4)nc3c2)cc1)Nc1cc(C(F)(F)F)ccc1F [Example 89, N-(5-(4-((2-Fluoro-5-(trifluoromethyl)phenyl)aminocarbonylamino)phenoxy)-1H-benzimidazol-2-yl)-5-benzimidazolecarboxamide] | 100 to 1000 | 
14 | < 100 | < 100 | < 100 | O=C(Cn1nnc(N2CCCC2)n1)Nc1nc2cc(Oc3ccc(NC(=O)Nc4cc(C(F)(F)F)ccc4F)cc3)ccc2[nH]1 [Example 96, N-(5-(4-((2-Fluoro-5-(trifluoromethyl)phenyl)aminocarbonylamino)phenoxy)-1H-benzimidazol-2-yl)(5-(1-pyrrolidino)tetrazol-2-yl)acetamide] | 100 to 1000 | 
15 | < 100 | < 100 | < 100 | COC(=O)Nc1nc2ccc(Sc3ccc(NC(=O)Nc4cccc(C(F)(F)F)c4)cc3)cc2[nH]1 [Example 2, Methyl N-(5-(4-((3-(trifluoromethyl)phenyl)aminocarbonylamino)phenylthio)-1H-benzimidazol-2-yl)carbamate] | 1000 to 10000 | 
16 | < 100 | < 100 | < 100 | COC(=O)Nc1nc2cc(Oc3cccc(NC(=O)Nc4cc(C(F)(F)F)ccc4F)c3)ccc2[nH]1 [Example 15, Methyl N-(5-(3-((2-Fluoro-5-(trifluoromethyl)phenyl)aminocarbonylamino)phenoxy)-1H-benzimidazol-2-yl)carbamate] | 100 to 1000 | 
17 | < 100 | < 100 | < 100 | COC(=O)Nc1nc2cc(Oc3ccc(NC(=O)Nc4cc(C(F)(F)F)ccc4Cl)cc3)ccc2[nH]1 [Example 43] | 1000 to 10000 | 
18 | < 100 | < 100 | < 100 | COC(=O)Nc1nc2cc(Oc3ccc(NC(=O)Nc4cc(C)ccc4F)cc3)ccc2[nH]1.Cl [Example 55, Methyl N-(5-(4-((2-fluoro-5-methylphenyl)aminocarbonylamino)phenoxy)-1H-benzimidazol-2-yl)carbamate hydrochloride] |  | −
19 | < 100 | < 100 | < 100 | CC(C)CCC(=O)Nc1nc2cc(Oc3ccc(NC(=O)Nc4cc(C(F)(F)F)ccc4F)cc3)ccc2[nH]1 [Example 28, N-(5-(4-((2-Fluoro-5-(trifluoromethyl)phenyl)aminocarbonylamino)phenoxy)-1H-benzimidazol-2-yl)-4-methylpentamide] | 100 to 1000 | 
20 | < 100 | < 100 | < 100 | CN(C)CCOC(=O)Nc1nc2cc(Oc3ccc(NC(=O)Nc4cc(C(F)(F)F)ccc4F)cc3)ccc2[nH]1 [Example 80, 2-(Dimethylamino)ethyl N-(5-(4-((2-fluoro-5-(trifluoromethyl)phenyl)aminocarbonylamino)phenoxy)-1H-benzimidazol-2-yl)carbamate] | < 100 | 
21 | < 100 | < 100 | < 100 | O=C(Nc1ccc(Oc2ccc3[nH]c(NC(=O)c4c[nH]cn4)nc3c2)cc1)Nc1cc(C(F)(F)F)ccc1F [Example 98, N-(5-(4-((2-Fluoro-5-(trifluoromethyl)phenyl)aminocarbonylamino)phenoxy)-1H-benzimidazol-2-yl)(1H-imidazole-4-carboxamide)dihydrochloride] | 100 to 1000 | 
22 | < 100 | < 100 | < 100 | O=C1CCn2c(nc3ccc(Oc4ccc(NC(=O)Nc5cc(C(F)(F)F)ccc5F)cc4)nc32)N1 [Example 77] | 100 to 1000 | 

Row | Compound | IC50 [1] [nM] | IC50 [2] [nM] | IC50 (GST-VEGFR2) [nM] | IC50 [3] [nM] | VEGF-C [3]
23 | CC(C)(C)OC(=O)NCC(=O)Nc1nc2cc(Oc3ccc(NC(=O)Nc4cc(C(F)(F)F)ccc4F)cc3)ccc2[nH]1 [Example 35, N-(5-(4-((2-Fluoro-5-(trifluoromethyl)phenyl)aminocarbonylamino)phenoxy)-1H-benzimidazol-2-yl)-2-(N-(t-butoxycarbony)amino)acetamide] | 100 to 1000 | < 100 | < 100 | 1000 to 10000 | 
